Melting point data for 109 molecules are collected here from a melting point compilation (Tetko et al.).

With `Ic1ccc(-c2ccc(I)cc2)cc1`, the melting point came out at 207 °C. The figure for `Cc1nc(-c2ccccc2)sc1CN` is 230 °C; for `NC(=O)N1c2ccccc2C=Cc2ccccc21` it is 190 °C. In turn, `CCCC=NO` displayed a melting point of -29.5 °C. The molecule `CSCCC(NC(=O)c1cccnc1SC)C(=O)O` (centres undefined) came in with a melting point of 157 to 161 °C. `Cc1cc(Cl)c(C)cc1N` displayed a melting point of 94 to 96 °C. Turning to `O=c1[nH]c2ccccc2n1C1=CCNCC1`, the melting point fell in the range of 195 to 200 °C. The figure for `CN1CCN(C)c2cc(C#N)ccc21` is 80 to 82 °C; for `CCCCCCCCCCCCOc1ccc(C=O)cc1OCCCCCCCCCCCC` it is 70 to 73 °C; for `CC(C)CC1(NC(=O)c2ccccc2)COCOC1=O` (racemic) it is 100 to 102 °C. The figure for `CCc1cccc(C)c1N` is -25 °C; for `O=[N+]([O-])c1ccc(N2CCNCC2)c(Cl)c1` it is 105 to 106 °C. `COc1ccc(C(=O)OCCOc2ccc(C=CC(=O)c3ccccc3)cc2)cc1` came in with a melting point of 113 °C. The figure for `CC(=O)Nc1ccc(N=Nc2ccc(N)cc2)cc1` is 212 °C; for `O=Cc1ccc(N2CCCC2)nc1` it is 89 to 90 °C.

For the molecule `CC(Cl)OC(=O)Cl` (centres undefined), the melting point is -65 °C. The figure for `Oc1c(F)ccc(F)c1F` is 33.5 °C. The figure for `CC1(O)CCC2C3CCC4=CC(=O)CCC4(C)C3(F)C(O)CC21C` (centres undefined) is 270 °C; for `O=C(O)c1c[nH]c2ccccc12` it is 200 to 203 °C; for `Cc1nn(C)c2ncc(C(N)=O)c(Cl)c12` it is 275 °C. As to `NCc1cccc(-c2ccsc2)c1`, the melting point came to 80 °C. Regarding `C/C(=N\c1ccccc1)c1c(O)c2ccccc2n(-c2ccccc2)c1=O`, the melting point fell in the range of 184 to 185 °C. The figure for `CCOC(=O)CSc1nc(C(C)(C)C)nn1C(=O)N(C)C` is 53 °C; for `N#Cc1ccc(-c2ccsc2)cc1` it is 109 to 111 °C. For `Brc1cc(Br)c(Oc2ccc(Br)c(Br)c2)c(Br)c1`, the melting point fell in the range of 86 to 87 °C. The figure for `Cc1cc(C#N)ccc1N` is 94 °C; for `C#CC(C)(C)Oc1ccc(C#N)cc1` it is 30 to 32 °C; for `CC(C)(C)c1cc(CC(=O)O)cc(C(C)(C)C)c1O` it is 157 to 158 °C. Turning to `COC(=O)c1cc(OC)c(OC)cc1N`, the melting point worked out at 129 °C. As to `C[Si]1(c2ccccc2)O[Si](C)(c2ccccc2)O[Si](C)(c2ccccc2)O1` (centres undefined), the melting point was found to be 100 °C. For `O=C(NCN1CCOCC1)c1cnccn1`, the melting point was determined as 118 °C. The figure for `Nc1ccc(Cn2cccn2)cc1` is 67 to 69 °C; for `COC(=O)C1c2ccccc2C(=O)OC1c1ccc([N+](=O)[O-])cc1` (centres undefined) it is 134 °C; for `CC(C)(Oc1ccc(C#N)cc1)C(=O)O` it is 117 to 120 °C. Molecule `C1CCCCCC2OC2CCCC1` (centres undefined) had a melting point of -7 °C. The figure for `Nc1cc(CO)ccn1` is 83 °C; for `O=c1c2ccccc2cc2n1CCc1ccccc1-2` it is 101 °C; for `COC(=O)CCCCCCCCC(=O)OC` it is 38 °C. Take `Cc1nn(C)c(Cl)c1C=O`: the melting point was 78 to 79 °C. In the case of `O=C(NC(=S)Nc1ccccc1)c1ccccc1`, the melting point lay in the range of 159 to 161 °C. Consider `Cc1cc2ccccc2cc1C`, for which the melting point is 105 °C. The molecule `O=C(COC(=O)c1ccccc1)c1ccccc1` yielded a melting point of 119 °C.

For `Nc1c(Br)cc(Br)cc1C(=O)c1ccccc1`, the melting point stood at 98 °C. The figure for `C=C1CC2C3CCC4=CC(=O)C=CC4(C)C3C(O)CC2(C)C1(O)C(=O)CO` (centres undefined) is 234 °C; for `O=C(O)c1ccc(F)cc1Br` it is 169 to 173 °C. The figure for `CC(C)(C)CC(C)(C)c1ccc(O)c(Cc2ccc(Cl)cc2Cl)c1` is 78 °C. On to `O=C(O)c1ccc(Br)nc1`, for which the melting point is 184 °C. Turning to `O=C(O)c1cc([N+](=O)[O-])ccc1N1CCOCC1`, the melting point is 166 to 172 °C.

For `Brc1c(Br)c(Br)c(-c2c(Br)c(Br)c(Br)c(Br)c2Br)c(Br)c1Br`, the melting point amounted to 375 °C. On to `COC(=O)c1ccc(I)c(C)c1`, for which the melting point is 61 °C. As to `C(=C/c1ccc(/N=C/c2ccccc2)cc1)/c1ccc(/N=C/c2ccccc2)cc1`, the melting point worked out at 104 °C. `O=C(Oc1c(F)c(F)c(F)c(F)c1F)c1ccccc1N1CCOCC1` showed a melting point of 87 to 90 °C. Molecule `Cc1nc2scc(-c3ccccc3)c2c(=O)n1NC(=O)c1cccc(C(F)(F)F)c1` showed a melting point of 134 to 138 °C. The figure for `Cc1ccc(Cc2c(N)n[nH]c2N)cc1` is 173 to 175 °C.

`Nc1c(C(=O)O)cccc1[N+](=O)[O-]` showed a melting point of 211 °C.

`CC(=O)OC(OC(C)=O)c1ccc2c(c1)C(=O)c1c(Cl)c(Cl)c(Cl)c(Cl)c1C2=O` had a melting point of 172 °C. The figure for `O=C(O)c1ccc(-c2ccncc2)cc1` is 300 °C; for `NCc1ccc(N2CCCC2)cc1` it is 37 to 44 °C.

With `CN1C2CCC1CC(OC(=O)c1ccccc1)C2` (centres undefined), the melting point was found to be 49 °C.

In turn, `Cc1ccc(-c2csc(N)n2)cc1` had a melting point of 137 °C. The figure for `Oc1cc(F)cc(F)c1F` is 29 °C; for `OC1C(C2COC3(CCCCC3)O2)OC2OC3(CCCCC3)OC21` (centres undefined) it is 129 to 135 °C; for `CN(C)C(=O)[C@@H]1OC(C)(C)O[C@H]1C(=O)N(C)C` it is 88 to 91 °C. The figure for `FC(F)(F)c1cccc(-c2noc(-c3cc(-c4ccccc4)c(C(F)(F)F)s3)n2)c1` is 95 to 96 °C; for `CC(C)(C)NC(=O)C1CCC2CC34CCC(CC=C3C=C(O)C=O)C4CCC21C` (centres undefined) it is 257 °C. Consider `N#CC1CC2C=CC1C2` (centres undefined), for which the melting point worked out at 13 °C. The figure for `O=[N+]([O-])c1ccc(Sc2ccc([N+](=O)[O-])cc2)cc1` is 160 °C; for `Fc1ncccc1-c1ccc(Cl)cn1` it is 100 °C.

Molecule `N#CC1=C(N)Oc2c(c(C(F)(F)F)nn2-c2ccccc2)C1c1ccc(F)cc1` (centres undefined) showed a melting point of 202 °C. The figure for `O=C(Nc1ccccc1)C1Cc2ccccc21` (centres undefined) is 161 °C; for `COc1c(C)cc(C(=O)O)cc1C` it is 190 to 194 °C; for `NNc1ccc([N+](=O)[O-])cn1` it is 206 °C. Turning to `Oc1ccccc1[C@H]1C[C@H](c2ccccc2)Sc2ccccc2N1`, the melting point was found to be 89.8 °C. The figure for `NC(=O)NN=C(O)Cc1ccccc1` is 168 °C; for `CC(=O)OC1C2=C(C(=O)C(O)=C(C(C)C)C2=O)C2(C)CCCC(C)(C)C2C1O` (centres undefined) it is 216 °C; for `O=C1OC(OC(=O)C(F)(F)F)c2ccccc21` (centres undefined) it is 58 °C. For `CCC(C)C1(CC)C(=O)NC(=O)NC1=O` (centres undefined), the melting point is 167 °C. Turning to `OC1OC(COCc2ccccc2)C(OCc2ccccc2)C(OCc2ccccc2)C1OCc1ccccc1` (centres undefined), the melting point was 152 °C. `O=C(NC(c1ccccc1)C(O)C(=O)O)c1ccccc1` (centres undefined) displayed a melting point of 170 °C. The molecule `Cc1ccc2c(O)c(-c3ccccc3)c(=O)[nH]c2c1` showed a melting point of 300 °C. The figure for `O=C(O)COCCN1C(=O)c2ccccc2C1=O` is 128 °C; for `COc1cc(/C=C/C(=O)CC(=O)/C=C/c2ccc(O)c(OC)c2)ccc1O` it is 183 °C. The figure for `Cc1ccc(N=C=O)cc1[N+](=O)[O-]` is 51 °C. The figure for `O=[N+]([O-])c1ncc[nH]1` is 287 °C; for `O=C1CCC(F)(F)CC1` it is 39 °C; for `OC1CCCCCC1` it is 2 °C. In the case of `Cc1ccc2c(c1Cl)C(=O)c1ccccc1C2=O`, the melting point was 170 °C. `O=C(O)/C(=C/c1ccc([N+](=O)[O-])cc1)c1ccccc1C(=O)O`: the melting point came out at 223 °C. The figure for `CCN(CC)c1ccc([N+](=O)[O-])cc1` is 77.5 °C; for `CCCCCCC(=O)CCCC` it is 2 °C; for `O=C(Nc1cccc(Br)c1)c1cncc(Cl)n1` it is 100 °C. The figure for `O=Cc1cc(O)ccc1[N+](=O)[O-]` is 167 °C.

On to `COc1ccc(C=C2N=C(c3ccccc3)OC2=O)cc1OC`, for which the melting point is 132 to 133 °C. For `O=[N+]([O-])c1ccc(S(=O)(=O)OCc2ccccc2OS(=O)(=O)c2ccc([N+](=O)[O-])cc2)cc1`, the melting point fell in the range of 204 to 206 °C. The figure for `O=C(c1nn2c(nc(=O)c3ccccc32)s1)c1cccc2ccccc12` is 241 °C. In turn, `Cc1cc(O)ccc1[N+](=O)[O-]` came in with a melting point of 128 °C. The figure for `O=C(OCc1ccccc1)N1c2ccccc2CC1CO` (centres undefined) is 67 to 71 °C; for `CCOCCc1ccc(OCCNc2ncnc(CC)c2Cl)c(C)c1C` it is 70 °C; for `COC(=O)c1ccc(C(=O)OC)c(C(=O)OC)c1` it is 39 °C. The figure for `CC(C)c1cccc(C(C)C)c1O` is 18 °C. In the case of `CCC(C)n1c(=O)[nH]c(C)c(Br)c1=O` (centres undefined), the melting point was 158 °C.

With `CC(C)SC1OC(CO)C(O)C(O)C1O` (centres undefined), the melting point is 121 °C. On to `CCCCCCCCCC(O)CC` (centres undefined), for which the melting point turned out to be 25 °C. The figure for `CCN(CC)CCOC(=O)C(O)(c1ccccc1)c1ccccc1` is 51 °C; for `NC(=O)c1cc(Br)cc(Br)c1` it is 182 °C; for `CC(=O)Oc1ccc(OC(C)=O)c(C)c1` it is 41 °C. `NC(Cc1n[nH]c2ccccc12)C(=O)O` (centres undefined) came in with a melting point of 240 °C. The figure for `CCOC(=O)c1c[nH]c(=S)nc1N` is 256 to 258 °C; for `Cc1cccc(C)c1NC(=O)C(C)N` (centres undefined) it is 256 °C.

As a reminder, the melting point is the temperature, or range, at which the solid turns liquid.
